Laboratory results: PubChem BioAssay AID248 (DTP/NCI, 2004)
Values joined by “and” are separate entries in the source; they are usually repeats but may differ in a detail not shown here. Identical values can stand only once. Inconclusive results and toxic doses are left out. No stated cut-off is given here; in the data, active means T/C of 150% or more; inactive means T/C below 125%. Peptide text beside a SMILES is read from it.

Tested on: L1210 leukemia ip in BDF1 mice, survival T/C
Assay: NCI In Vivo Anticancer Drug Screen. Data for tumor model L1210 Leukemia (intraperitoneal) in B6D2F1 (BDF1) mice
Settings: endpoint: mean survival time, higher = longer survival
How it was run: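 Mice bearing the transplanted tumor received compound or vehicle. Survival of the treated group was divided by that of the vehicle-treated control group to give the ratio.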

[1] = dose: 100.0 mg/kg/injection, schedule: Q01DX009 (ip), vehicle: Klucel (hydroxypropylcellulose) (HPC)
[2] = dose: 200.0 mg/kg/injection, schedule: Q01DX009 (ip), vehicle: Klucel (hydroxypropylcellulose) (HPC)
[3] = dose: 100.0 mg/kg/injection, schedule: Q01DX001 (ip), vehicle: saline
[4] = dose: 200.0 mg/kg/injection, schedule: Q01DX001 (ip), vehicle: saline
[5] = dose: 400.0 mg/kg/injection, schedule: Q01DX001 (ip), vehicle: saline
[6] = dose: 50.0 mg/kg/injection, schedule: Q01DX009 (ip), vehicle: saline with Tween-80
[7] = dose: 100.0 mg/kg/injection, schedule: Q01DX009 (ip), vehicle: saline with Tween-80
[8] = dose: 200.0 mg/kg/injection, schedule: Q01DX009 (ip), vehicle: saline with Tween-80
[9] = dose: 400.0 mg/kg/injection, schedule: Q01DX009 (ip), vehicle: Klucel (hydroxypropylcellulose) (HPC)
[10] = dose: 100.0 mg/kg/injection, schedule: Q01DX001 (ip), vehicle: carboxymethylcellulose (CMC)
[11] = dose: 200.0 mg/kg/injection, schedule: Q01DX001 (ip), vehicle: carboxymethylcellulose (CMC)
[12] = dose: 400.0 mg/kg/injection, schedule: Q01DX001 (ip), vehicle: carboxymethylcellulose (CMC)
[13] = dose: 50.0 mg/kg/injection, schedule: Q01DX001 (ip), vehicle: carboxymethylcellulose (CMC)
[14] = dose: 100.0 mg/kg/injection, schedule: Q04DX003 (ip), vehicle: saline with Tween-80
[15] = dose: 200.0 mg/kg/injection, schedule: Q04DX003 (ip), vehicle: saline with Tween-80
[16] = dose: 400.0 mg/kg/injection, schedule: Q04DX003 (ip), vehicle: saline with Tween-80

Measured: T/C

S=c1[nH]ncn1-c1ccccc1
inactive: [1] 92 % of control | [2] 93 % of control

O=C1CCC(CCl)O1 (stereo not given)
inactive: dose: 75.0 mg/kg/injection, schedule: Q01DX009 (ip), vehicle: other 100 % of control | dose: 100.0 mg/kg/injection, schedule: Q04DX002 (ip), vehicle: other 93 % of control | dose: 150.0 mg/kg/injection, schedule: Q01DX009 (ip), vehicle: other 104 % of control | dose: 200.0 mg/kg/injection, schedule: Q04DX002 (ip), vehicle: other 93 % of control | dose: 300.0 mg/kg/injection, schedule: Q01DX009 (ip), vehicle: other 96 % of control | dose: 400.0 mg/kg/injection, schedule: Q04DX002 (ip), vehicle: other 110 % of control

Nc1nc2[nH]cnc(=S)c2[nH]1
inactive: dose: 75.0 mg/kg/injection, schedule: Q01DX001 (ip), vehicle: saline 101 % of control

NCCCNCCO
inactive: [3] 102 % of control | [4] 111 % of control | [5] 105 % of control

COCCNCCN1CCN(CCCN2c3ccccc3Sc3ccc(C(F)(F)F)cc32)CC1
inactive: dose: 6.25 mg/kg/injection, schedule: Q04DX003 (ip), vehicle: saline 110 % of control | dose: 12.5 mg/kg/injection, schedule: Q01DX009 (ip), vehicle: saline 107 % of control | dose: 12.5 mg/kg/injection, schedule: Q04DX003 (ip), vehicle: saline 96 % of control and 100 % of control | dose: 25.0 mg/kg/injection, schedule: Q01DX009 (ip), vehicle: saline 105 % of control | dose: 25.0 mg/kg/injection, schedule: Q04DX003 (ip), vehicle: saline 95 % of control and 105 % of control | dose: 50.0 mg/kg/injection, schedule: Q04DX003 (ip), vehicle: saline 102 % of control and 108 % of control

COc1cc(NCC(O)C(O)C(O)CO)c([N+](=O)[O-])cc1OC (stereo not given)
inactive: [3] 92 % of control | [4] 99 % of control | [5] 100 % of control

CC[P+]1(c2ccccc2)CCCc2ccc3ccccc3c21 (stereo not given)
inactive: dose: 6.25 mg/kg/injection, schedule: Q01DX009 (ip), vehicle: saline with Tween-80 117 % of control

C=CCCC/C(C)=N/NS(=O)(=O)c1ccc(C)cc1
inactive: [6] 112 % of control | [7] 92 % of control | [8] 106 % of control

CCCCCCCCCC(=O)N/N=C/c1c[nH]c2ccccc12
inactive: [1] 95 % of control | [2] 114 % of control | [9] 100 % of control

O=C(O)C1C(=O)Oc2c(cccc2[N+](=O)[O-])C1O (stereo not given)
inactive: [10] 94 % of control | [11] 92 % of control | [12] 92 % of control

CCOC(=O)C(Cc1c[nH]c2cc(N(CCO)CCO)ccc12)(NC(C)=O)C(=O)OCC
inactive: [3] 97 % of control | [4] 101 % of control | [5] 98 % of control

C=COC(=O)NC(C(=O)O)C(C)C (stereo not given)
inactive: [3] 96 % of control

N/C(=N\N=C\c1ccc2c(c1)OCO2)N/N=C\c1ccc2c(c1)OCO2
inactive: dose: 15.0 mg/kg/injection, schedule: Q01DX Z (ip), vehicle: carboxymethylcellulose (CMC) 95 % of control | dose: 30.0 mg/kg/injection, schedule: Q01DX Z (ip), vehicle: carboxymethylcellulose (CMC) 101 % of control | dose: 60.0 mg/kg/injection, schedule: Q01DX Z (ip), vehicle: carboxymethylcellulose (CMC) 97 % of control | dose: 120.0 mg/kg/injection, schedule: Q01DX Z (ip), vehicle: carboxymethylcellulose (CMC) 94 % of control | dose: 120.0 mg/kg/injection, schedule: Q01DX Z (oral), vehicle: carboxymethylcellulose (CMC) 95 % of control | dose: 240.0 mg/kg/injection, schedule: Q01DX Z (oral), vehicle: carboxymethylcellulose (CMC) 103 % of control | dose: 480.0 mg/kg/injection, schedule: Q01DX Z (oral), vehicle: carboxymethylcellulose (CMC) 101 % of control | dose: 960.0 mg/kg/injection, schedule: Q01DX Z (oral), vehicle: carboxymethylcellulose (CMC) 97 % of control

C[CH2][Sn](/[CH]=C\CO)([CH2]C)[CH2]C
inactive: dose: 0.78 mg/kg/injection, schedule: Q01DX009 (ip), vehicle: saline 86 % of control | dose: 1.56 mg/kg/injection, schedule: Q01DX009 (ip), vehicle: saline 104 % of control | dose: 3.12 mg/kg/injection, schedule: Q01DX009 (ip), vehicle: saline 90 % of control

CC(C)C(NC(=O)C(CCC(=O)O)NC(=O)C(N)Cc1ccc(O)cc1)C(=O)NCC(=O)NC(Cc1ccc(O)cc1)C(=O)NC(CCC(=O)O)C(=O)NC(C(=O)NCC(=O)NCC(=O)O)C(C)C (stereo not given) (H-YEVGYEVGG-OH; configuration not given here)
inactive: [13] 91 % of control | [10] 96 % of control | [11] 91 % of control

O=C(CBr)CC(=O)Nc1ccccc1
inactive: dose: 25.0 mg/kg/injection, schedule: Q01DX009 (ip), vehicle: saline with Tween-80 97 % of control | [6] 91 % of control

COC1OC(CBr)C(Br)C(OC(=O)c2ccccc2)C1OC(=O)c1ccccc1 (stereo not given)
inactive: dose: 75.0 mg/kg/injection, schedule: Q04DX002 (ip), vehicle: Klucel (hydroxypropylcellulose) (HPC) 103 % of control | dose: 150.0 mg/kg/injection, schedule: Q04DX002 (ip), vehicle: Klucel (hydroxypropylcellulose) (HPC) 98 % of control | dose: 300.0 mg/kg/injection, schedule: Q04DX002 (ip), vehicle: Klucel (hydroxypropylcellulose) (HPC) 98 % of control

COc1ccc(OC)c(COC(=O)c2ccccc2)c1COC(=O)c1ccccc1
inactive: [10] 95 % of control | [11] 101 % of control | [12] 95 % of control

CC(=O)c1ccc(Cc2ccc(C(C)=O)s2)s1
inactive: [6] 86 % of control | [7] 93 % of control | [8] 89 % of control

O=N[C@@H]1CCC[C@H](Cl)C1
inactive: [14] 95 % of control | [15] 98 % of control | [16] 95 % of control

COc1cc(Br)c(/C=C/C(=O)O)cc1OC
inactive: [14] 95 % of control | [15] 93 % of control | [16] 92 % of control

COC(=O)C(CSCSC)NC(=O)/C=C/c1ccccc1Cl (stereo not given)
inactive: [6] 97 % of control and 86 % of control | [7] 92 % of control | [14] 94 % of control | [8] 93 % of control and 92 % of control | [15] 91 % of control | [16] 87 % of control

C(=C/n1cnc2ccccc21)/c1ccccc1
inactive: dose: 87.5 mg/kg/injection, schedule: Q04DX003 (ip), vehicle: Klucel (hydroxypropylcellulose) (HPC) 92 % of control | dose: 175.0 mg/kg/injection, schedule: Q04DX003 (ip), vehicle: Klucel (hydroxypropylcellulose) (HPC) 96 % of control | dose: 350.0 mg/kg/injection, schedule: Q04DX003 (ip), vehicle: Klucel (hydroxypropylcellulose) (HPC) 91 % of control

c1ccc2cc3nc4c(nc3cc2c1)[nH]c1ccccc14
inactive: dose: 100.0 mg/kg/injection, schedule: Q01DX001 (ip), vehicle: other 87 % of control | dose: 200.0 mg/kg/injection, schedule: Q01DX001 (ip), vehicle: other 95 % of control | dose: 400.0 mg/kg/injection, schedule: Q01DX001 (ip), vehicle: other 95 % of control

CC(N)C(=O)Nc1ccc(C(=O)O)c(O)c1 (stereo not given)
inactive: dose: 100.0 mg/kg/injection, schedule: Q01DX009 (ip), vehicle: saline 109 % of control | dose: 200.0 mg/kg/injection, schedule: Q01DX009 (ip), vehicle: saline 102 % of control | dose: 400.0 mg/kg/injection, schedule: Q01DX009 (ip), vehicle: saline 106 % of control

O=C(O)C(=O)Cc1ccc(O)cc1
inactive: [13] 105 % of control | [10] 96 % of control | [11] 91 % of control | [12] 100 % of control

Nc1nc(N)c(N=Nc2ccccc2S(=O)(=O)O)c(N)n1
inactive: [3] 105 % of control | [4] 89 % of control | [5] 96 % of control

CC(C)CC/C=C/c1ccccc1
inactive: dose: 100.0 mg/kg/injection, schedule: Q04DX002 (ip), vehicle: saline with Tween-80 92 % of control | dose: 200.0 mg/kg/injection, schedule: Q04DX002 (ip), vehicle: saline with Tween-80 104 % of control | dose: 400.0 mg/kg/injection, schedule: Q04DX002 (ip), vehicle: saline with Tween-80 92 % of control

CN1C(C)(C)CC(O)(C(O)(c2ccccc2)c2ccccc2)CC1(C)C
inactive: dose: 100.0 mg/kg/injection, schedule: Q04DX003 (ip), vehicle: acetone 98 % of control

COc1cc(C(=O)Nc2cc(C(F)(F)F)ccc2Cl)cc(OC)c1OC
inactive: [1] 106 % of control | [2] 100 % of control | [9] 97 % of control

CC(C)CC(NC(=O)OC(C)(C)C)C(=O)NC(Cc1c[nH]c2ccccc12)C(=O)NN (stereo not given)
inactive: [10] 88 % of control | [12] 94 % of control

CNC(=O)Oc1ccc(C(=O)OCCO)cc1
inactive: [3] 90 % of control | [4] 88 % of control | [5] 88 % of control
